Data: ChEMBL document CHEMBL1150149, “Bacopaside III, bacopasaponin G, and bacopasides A, B, and C from Bacopa monniera” (2002)

System: Rattus norvegicus
Test: Antihyperglycemic activity against streptozotocin-induced diabetic rat assessed as change in plasma glucose at 1 mM/kg, iv
Type: functional

O=C(O)[C@H]1O[C@@H](Oc2cc(O)c3c(=O)cc(-c4ccc(O)c(O)c4)oc3c2)[C@H](O)[C@@H](O)[C@@H]1O showed an Activity of -25.54%.
